Patent publication US20060211744A1, “3-Pyridinecarboxamide reduces nerve degeneration” (Children's Medical Center, priority 2005, published 2006)

Experiments:
[1] = test system: experimental autoimmune encephalomyelitis (EAE) mice; format: in vivo
From the text: EAE is an inflammatory, demyelinating disease that can be induced by immunizing animals against myelin antigens, and is an accepted animal model for multiple sclerosis (MS) as it has similarities based on both the histopathology and the clinical course of the affected animals. In methods adapted from Lo et al. (J Neurophysiol. 2003 November;90(5):3566-71) we examine the effect of nicotinamide on axonal degeneration within the dorsal columns (cuneate fasciculus) and dorsal corticospinal tracts of the spinal cord.
Induction of EAE. Experiments are carried out in accordance with National Institutes of Health guidelines for the use of laboratory animals. C57/BL6 mice 6-10 wk of age are injected subcutaneously with 200 μl of an emulsion of 300 μg of rat myelin oligodendrocyte glycoprotein (MOG) 35-55 peptide (Keck Biotechnology Center, Yale University) in incomplete Freund's adjuvant (IFA, Sigma, St. Louis, Mo.) supplemented with 250-500 μg of Mycobacterium tuberculosis H37Ra (Difco, Detroit, Mich.). The MOG injection, with mycobacterium supplemented IFA, is repeated in the opposite flank 1 wk later. The mice also receive an injection of 250-500 ng pertussis toxin (Sigma) in 200 μl PBS ip immediately after the first immunization with MOG and then again 48 h later.
Nicotinamide treatment. Beginning on day 10 after the initial MOG injection, control and EAE-induced mice are fed pelleted mice chow incorporating nicotinamide (Sigma) to achieve an average daily consumption of 500 mg/kg nicotinamide. A separate group of EAE mice are fed the identical standard mice chow not containing nicotinamide. Serum nicotinamide levels are measured by HPLC (Chatzimichalakis et al, J Sep Sci. (2004) 27:1181-8) from two mice in each group on day 14 and on the day of either perfusion (days 27-28) or electrophysiological study (days 24-30).
Mice are observed daily for clinical signs and scored on a 0-6 scale, with 0.5 gradations for intermediate scores, as follows: 0, normal without clinical signs; 1, flaccid tail; 2, abnormal righting reflex; 3, partial hindlimb paralysis; 4, complete hindlimb paralysis; 5, moribund; and 6, death.
Electrophysiological recordings. Fourteen adult male C57/BL6 mice are used for assessing spinal cord conduction. Untreated EAE (n=6) and nicotinamide-treated EAE (n=4) mice are studied between days 24 and 30 and age-matched nicotinamide-treated mice (n=4) are used as controls. Mice are anesthetized with halothane, and deep anesthesia is maintained with 1.1% halothane through a tracheal cannula by artificial ventilation (75-80 strokes/min, 0.7 ml/stroke) and verified by the absence of a withdrawal reflex to noxious peripheral pinch. Heartbeats (˜360 beats/min) and body temperature are carefully monitored. Mice are fixed in a stereotaxic apparatus (Kopf Instruments). A midline incision is made through the skin, a laminectomy is performed, and the dura is carefully cut to expose the lower thoracic and lumbar spinal cord regions. Silver wire electrodes (0.01-in diam, A-M Systems) insulated except at the tips are used for stimulation of dorsal column axons at L4-5 and recording of compound action potentials (CAP) at T11-12. Using stereotaxic measurements, the electrodes are positioned 8 mm apart at the surface of the midline spinal cord. Pancuronium bromide (0.3 mg/kg, Sigma) is injected ip to prevent further muscular contractions throughout the experiment. The signal from the recording electrode is amplified with filters set at 300-3,000 Hz (Dam 80, WPI) and collected (CED 1401, Cambridge Electronic Design), and a computer is used for data analysis (Spike 2 program, Cambridge Electronic Design). Single-current pulses (0.05 ms) are applied through a stimulus isolation unit (A365, WPI, and Master-8, AMPI) in increments (0.2, 0.3, 0.6, 0.8, and 1 mA). The amplitude of CAP is calculated as the value between the positive and negative peaks of the biphasic wave. […]

[2] = test system: transected axons from cultured dorsal root ganglia (DRG); assay: HPLC measurement of NAD and ATP levels in degenerating axons of cultured DRG; format: cell-based
Experimental: As a first step in examining the role of NAD in Wallerian degeneration, we used an ultra-sensitive high-performance liquid chromatography (HPLC) method (Micheli and Sestini, 1997) to measure the concentration of NAD and its derivatives in degenerating axons. To do this, the acidic lysates were prepared from axonal segments collected at different time points after transecting the axons from cultured dorsal root ganglia (DRG) and resolved by reverse-phase chromatography. 2 hr after axotomy, when the transected axons were still morphologically indistinguishable from their uncut controls, NAD levels began to decrease. This NAD decrease continued over the course of degeneration, reaching about 50% at 4 hr post-axotomy, to almost undetectable levels by 6 hr after axotomy, when early morphological signs of degeneration began to develop. […] By a similar approach of alkaline extraction (Micheli and Sestini, 1997), it has been difficult for us to detect NADH in the axonal extracts, presumably due to the low abundance of NADH and the high NAD/NADH ratio reported in mammalian cells (Zhang et al., 2002, Kasischke et al., 2004, Kannurpatti et al., 2004).
In addition to acting as co-factors for Sirt1 and other NAD-dependent enzymes, NAD is also essential for ATP-synthesizing redox reactions which are involved in glycolysis and oxidative phosphorylation (Shibata et al., 1991). […]

[3] = nicotinamide-treated EAE, days 24-30

## NC(=O)c1cccnc1 [nicotinamide, 3-pyridinecarboxamide]
[1]; EAE mice, 27-28 days
  effect on dorsal corticospinal column and dorsal column (cuneate fasciculus) axons: significant protective effect
[1]; EAE mice, chow 500 mg/kg daily from day 10
  clinical course versus untreated EAE mice: less severe clinical course
[1]; EAE mice, chow 500 mg/kg daily from day 10, day 27-28 (untreated EAE 3-4)
  clinical score (0-6 scale): 1-2
[1]; mouse, in vivo
  clinical signs in nicotinamide-treated control mice: do not display any pathological clinical signs
  difference in density of neurofilament-labeled axons, untreated versus nicotinamide-treated controls: not significant
[1]; [3]
  average CAP amplitude and area versus nicotinamide-treated control group: not significantly different
  conduction velocity: maintained close to normal levels
[2]; exogenously applied
  axonal NAD levels after transection (HPLC): delayed the decrease of axonal NAD levels
[2]; exogenously provided
  ATP levels in transected axons separated from their somas: delayed the decrease of ATP levels
